In ChEMBL document CHEMBL3430912, “GSK Tres Cantos Anti-Kinetoplastid Screening (TCAKS) Data”:

What was measured:
Trypanosoma cruzi [1] = assay: GSK_TCAKS: pIC50 Trypanosoma cruzi viability assay using beta-GAL activity. This assay was run at single shot at 5uM compound concentration per well. The biological reagents consisted of NIH-3T3 host cells and trypomastigotes parasitic cells; both cell types were set to a 3.3 * 10^5 cells/mL dilution in assay DMEM by means of a CASY cell counter device using a 60um capillary. 6 uL of the mixture were dispensed per well (about 1 * 10^3 host-cells and 1 * 10^3 parasites) with a Multidrop Combi dispenser. […] In all wells, the percentage of DMSO never exceeded 0.5%. Plates incubated for four days at 37C, 5% CO2. The substrate used for the assay fluorescence intensity (FLINT) readout was resorufin-beta-D-galactopiranoside (Sigma-Aldrich) at 5uM per well. It was diluted in PBS supplemented with the soft detergent Igepal (Fluka).; format: functional, organism-based, Mus musculus; settings: Tulahuen, NIH3T3
Trypanosoma cruzi [2] = assay: (§1) GSK_TCAKS: pIC50 Trypanosoma cruzi Imaging: Infected Cells. […] Cells were then washed once with PBS before infection. T. cruzi trypomastigotes, collected at days 5 to 8 after infection from LLC-MK2 parasite infected cultures, were allowed to swim out for 4h at 37C from a centrifuged pellet (2,500 rpm/10 min/room temperature). Trypomastigotes were then collected and counted in a CASY Cell Counter. Trypomastigotes, in supplemented DMEM, were added to H9c2 cultures in a multiplicity of infection of 1 and incubated for 18 h. Cells were washed once with PBS before incubation of the infected H9c2 monolayer with trypsin (Life-Technologies) to detach cells from the flask. Cells were counted in a CASY Cell Counter using a 150 um capillary and their density set at 5 * 10^4 cells per mL in supplemented assay DMEM. Infected H9c2 were dispensed into 384-well poly-lysine coated assay plates at 50uL per well using a Multidrop Combi dispenser. After seeding them, the plates were incubated at 37C, 5% CO2 for 72h. Cultures were then fixed and stained by addition of 50 uL of a solution containing 8% formaldehyde and 4 uM DRAQ5 DNA dye (BioStatus, UK) per well. […] Five images were collected per well for reliable statistical analysis. Automated image analysis was performed with a script developed on Acapella High Content Imaging and Analysis Software (PerkinElmer). Output: percentage of infected cells per well as a second infection marker.; format: functional, organism-based, Rattus norvegicus; settings: H9c2, 4 h
Trypanosoma cruzi [3] = assay: GSK_TCAKS: pIC50 Trypanosoma cruzi Imaging: Amastigotes/Cell. […] Cells were then washed once with PBS before infection. T. cruzi trypomastigotes, collected at days 5 to 8 after infection from LLC-MK2 parasite infected cultures, were allowed to swim out for 4h at 37C from a centrifuged pellet (2,500 rpm/10 min/room temperature). Trypomastigotes were then collected and counted in a CASY Cell Counter. Trypomastigotes, in supplemented DMEM, were added to H9c2 cultures in a multiplicity of infection of 1 and incubated for 18 h. Cells were washed once with PBS before incubation of the infected H9c2 monolayer with trypsin (Life-Technologies) to detach cells from the flask. Cells were counted in a CASY Cell Counter using a 150 um capillary and their density set at 5 * 10^4 cells per mL in supplemented assay DMEM. Infected H9c2 were dispensed into 384-well poly-lysine coated assay plates at 50uL per well using a Multidrop Combi dispenser. After seeding them, the plates were incubated at 37C, 5% CO2 for 72h. Cultures were then fixed and stained by addition of 50 uL of a solution containing 8% formaldehyde and 4 uM DRAQ5 DNA dye (BioStatus, UK) per well. […] Five images were collected per well for reliable statistical analysis. Automated image analysis was performed with a script developed on Acapella High Content Imaging and Analysis Software (PerkinElmer). Output: number of amastigotes per cell as infection level measurement.; format: functional, organism-based, Rattus norvegicus; settings: H9c2, 4 h
Trypanosoma cruzi [4] = assay: as §1, with “H2C9” for “Trypanosoma cruzi”, “H9c2 Host Cardiomyocytes.” for “Infected Cells.”, “Number” for “percentage”, “H9c2 Host Cardiomyocytes nuclei to determine drug-related cytotoxicity.” for “infected cells per well as a second infection marker.”; format: functional, organism-based, Rattus norvegicus; settings: H9c2, 4 h
Leishmania donovani [5] = assay: GSK_TCAKS: pIC50 Leishmania donovani viability assay using fluorescence intensity. Assay plates (1536-well) were prepared by adding 30nL per well of compound. For single shot assay, the final compound concentration was 5uM. […] Briefly, eGFP LdBOB axenic amastigotes were harvested, fixed and counted in a CASY cell counter (Roche-Applied Science). A final concentration of 1.5 * 10^5 cells per well were prepared in amastigote media containing 500 U/mL penicillin/streptomycin (Invitrogen) and 6uL was dispensed to each experimental well using a Multidrop Combi dispenser (Thermo Scientific). 6uL of assay media was dispensed to control columns used as reference for 100% compound response. Following incubation for 72 h at 37C, 5% CO2, 2 uL of resazurin was added to each well at a final concentration of 0.5 mM in phosphate buffered saline (PBS) with IGEPAL (Sigma-Aldrich), 0.05% (v/v).; format: functional, organism-based
Leishmania donovani [6] = assay: (§2) GSK_TCAKS: pIC50 Leishmania donovani Imaging: Infected Macrophages. Assay plates (384-well) were prepared by adding 250nL of compound to each well. For single shot assay, the final compound concentration was 5 uM. […] Automated image analysis was performed with a script developed on Acapella High Content Imaging and Analysis Software (PerkinElmer). Output: Percent of infected macrophage cells were reported for each well.; format: functional, organism-based, Homo sapiens; settings: THP-1
Leishmania donovani [7] = assay: as §2, with “Amastigotes/Macrophages.” for “Infected Macrophages.”, “Average number” for “Percent”, “amastigotes per” for “infected”, “cell” for “cells”; format: functional, organism-based, Homo sapiens; settings: THP-1
Leishmania donovani [8] = assay: as §2, with “THP-1 Host” for “Infected”, “THP-1 cell count” for “Percent of infected macrophage cells”; format: functional, organism-based, Homo sapiens
[9] = tested on: Trypanosoma brucei brucei; assay: GSK_TCAKS: pIC50 Trypanosoma brucei viability assay using fluorescence intensity. Assay plates (1536-well) were prepared by dispensing 25nL of compound solution per well using an Echo acoustic dispenser (Labcyte).; format: functional, organism-based; settings: Lister 427, 2 h
[10] = tested on: Trypanosoma brucei brucei; assay: GSK_TCAKS: pIC50 Trypanosoma brucei viability assay using luminiscence. Assay plates (1536-well) were prepared. T. brucei cultures were harvested and counted in a CASY cell counter. A parasite suspension was prepared at a final concentration of 5 * 10^4 cells/mL in complete HMI9 medium and 6uL was dispensed to all wells containing compounds using a Multidrop Combi dispenser. 6uL of HMI9 media with 0.4% DMSO were dispensed to control columns. Plates were incubated for 24 h at 37C, 5% CO2 then tempered for 10 min at room temperature. ATP content was quantified by adding 4 uL of CellTiter-Glo Reagent (Promega) according to the manufacturer's instructions. Luminescence was measured using a ViewLux.; format: functional, organism-based; settings: Lister 427, CASY
[11] = GSK_TCAKS: pIC50 HepG2 human cell line viability assay using luminiscence. […] Seeding density was checked to ensure that new mono-layers were not more than 50% confluent at the time of harvesting. Cell suspension was added to 500 mL of the same medium at a final density of 1.2 * 10^5 cells/mL. This cell suspension was dispensed (25 uL, 3000 cells per well) into 384-well clear-bottom plates using a Multidrop Combi dispenser. Prior to addition of the cell suspension, the screening compounds (250 nL) were pre-dispensed into the plates with an Echo liquid handler. Plates were incubated for 48 h at 37C, 5% CO2. After incubation, plates equilibrated at room temperature for 30 min before proceeding to develop the luminescent signal. The signal developer, CellTiter-Glo Reagent, was allowed to equilibrate at room temperature for 30 min and added to the plates (25uL per well) using a Multidrop Combi dispenser. Plates were left for 10 min at room temperature for stabilization and then read using a ViewLux.; format: toxicity, cell-based
[12] = target: Sterol 14-alpha demethylase (Trypanosoma cruzi (strain CL Brener), UniProt Q7Z1V1); assay: GSK_TCAKS: pIC50 CYP51 from Trypanosoma cruzi.; format: functional
Chain of Sterol 14-alpha demethylase (Q7Z1V1 whole entry): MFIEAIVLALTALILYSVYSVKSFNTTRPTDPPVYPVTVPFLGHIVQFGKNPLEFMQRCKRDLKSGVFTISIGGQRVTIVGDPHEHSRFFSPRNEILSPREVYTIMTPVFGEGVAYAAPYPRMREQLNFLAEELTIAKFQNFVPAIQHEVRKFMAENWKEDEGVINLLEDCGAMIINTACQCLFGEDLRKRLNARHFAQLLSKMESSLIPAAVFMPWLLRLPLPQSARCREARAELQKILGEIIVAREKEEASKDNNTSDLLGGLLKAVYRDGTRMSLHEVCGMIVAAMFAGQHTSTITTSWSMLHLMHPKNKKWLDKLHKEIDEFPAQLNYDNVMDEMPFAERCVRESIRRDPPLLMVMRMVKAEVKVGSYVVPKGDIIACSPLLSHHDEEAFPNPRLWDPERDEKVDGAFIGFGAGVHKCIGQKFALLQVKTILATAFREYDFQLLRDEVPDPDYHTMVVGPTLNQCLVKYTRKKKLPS

Compound | IC50 (Trypanosoma cruzi [1]) [µM] | IC50 (Trypanosoma cruzi [2]) [µM] | IC50 (Trypanosoma cruzi [3]) [µM] | IC50 (Trypanosoma cruzi [4]) [µM] | IC50 (Leishmania donovani [5]) [µM] | IC50 (Leishmania donovani [6]) [µM] | IC50 (Leishmania donovani [7]) [µM] | IC50 (Leishmania donovani [8]) [µM] | IC50 [9] [µM] | IC50 [10] [µM] | IC50 at 48 h [11] [µM] | IC50 [12] [µM]
COc1ccc2ncc(F)c(CCN3CC[C@@H](NC(=O)c4cc5c(s4)CCC5)[C@@H](O)C3)c2n1 | 0.158 | 0.126 | 0.0501 | 0.126 | 1 | 6.31 | 1.26 | 25.1 | 0.1 | 0.316 | 50.1 | 1.26
CC(=O)NC1(c2ccccc2)CCN(CC(=O)Nc2ccccc2-c2ccccc2)CC1 | 1.26 | 7.94 | 1.58 | > 50.1 | 20 | > 50.1 | 39.8 | > 50.1 | 0.631 | 0.501 | > 100 | 50.1
O=C1COC(c2ccccc2)(c2ccccc2)CN1C1CCN(Cc2ccc(-n3ccnc3)cc2)CC1 | 1.58 | 2 | 0.501 | 31.6 | 31.6 | 15.8 | 12.6 | 15.8 | 0.794 | 1 | 50.1 | 0.0794
CC(=O)Nc1ccc(CN2CCC(N3CC(c4ccccc4)(c4ccccc4)OCC3=O)CC2)cc1 | 12.6 | 31.6 | 20 | > 50.1 | 0.501 | 25.1 | 20 | 39.8 | 0.316 | 0.398 | 79.4 | > 100
CCc1ccccc1[C@@H](C)NC(=O)c1cnc2c(cnn2CC)c1NC1CCN(C(N)=O)CC1 | 25.1 | > 50.1 | 39.8 | > 50.1 | > 50.1 | > 50.1 | > 50.1 | > 50.1 | 0.251 | 0.501 | > 100 | 79.4
COC(=O)c1ccc(-c2cnc3ccc(NCc4ccccn4)nn23)cc1 | 7.94 | 7.94 | 5.01 | > 50.1 | 12.6 | > 50.1 | 15.8 | 12.6 | 0.631 | 1 | 100 | 1.26
O=C(Nc1cccc(S(=O)(=O)Nc2ccc(Br)cc2)c1)c1ccc([N+](=O)[O-])s1 | 0.1 | 0.126 | 0.1 | 2.51 | 0.794 | 1 | 0.794 | 10 | 0.2 | 0.398 | 15.8 | 2.51
CCc1cccc(CC)c1-n1c(SCC(=O)N2CC(=O)Nc3ccccc32)nnc1-c1cccnc1 | 25.1 | 31.6 | 25.1 | > 50.1 | 39.8 | > 50.1 | > 50.1 | > 50.1 | 0.501 | 1 | > 100 | 3.16
COc1ccc(C2C3CCCCC3(O)CCN2CC(=O)Nc2ccc(Cl)cc2Cl)cc1 (stereo not drawn) | 2.82 | 1.26 | 0.794 | 20 | 1.58 | 2.51 | 0.794 | > 50.1 | 7.94 | 25.1 | > 100 | 10
